# Entries after “also recorded” stand apart in the source; their conditions may differ. Non-standard residues stand in square brackets, D forms with d. dNMeW = CN[C@H](Cc1c[nH]c2ccccc12)C(=O)O; dNMeE = CN[C@H](CCC(=O)O)C(=O)O
# Tests used:
# [1] = test system: plasma HDL; assay: in vivo plasma HDL remodeling after intraperitoneal injection (Western blotting for mouse apoA-I); settings: male mice (n=3), i.p. 18-24 mg/kg; FIG. 9
# Description: To ascertain if the cyclic D,L-α-peptides function in vivo as modulators of HDL, we administered 1 to mice (BALB/c, n=3) via intraperitoneal injection (i.p.) at a dose of 20 mg/kg. After various times, blood was drawn and the plasma was analyzed by Western blotting to determine the levels of the HDL subpopulations.
# In vivo plasma remodeling: Cyclic peptide c[wLwReQeR], 1, was dissolved in 10% sucrose, and sterile filtered through a 0.22-μm syringe filter before injection. Mice were fasted beginning 12 h before dosing, and continued the fast until after the 8-h time point blood draw was completed. Groups of three mice received a 20 mg/kg dose of the cyclic peptide via intraperitoneal injection (0.3 mL). Blood was drawn (30-60 μL) from the retro-orbital sinus into a heparinized capillary tube before dosing (0 min) and at different intervals from 30 min to 8 h after dosing. Plasma was isolated immediately from the whole blood by centrifugation at 5000 rpm for 10 min at 4° C., after which 10 μL of plasma were mixed with 90 μL of 50% sucrose, vortexed for 30 s, and stored at 4° C. until all time points had been collected (samples were stored from 0-8 h). Samples were then mixed with 20 μL of 6× native loading buffer (125 mM tris, pH 6.8, 0.02% bromophenol, 20% glycerol). 6 μL of these samples were loaded onto a 4-20% polyacrylamide gel. Gels were run at constant 80 V at 4° C. for 14 h using a Laemli buffer system (25 mM tris, 192 mM glycine, pH 8.3). Gels were then blotted onto nitrocellulose membranes (0.45 μm, Bio-Rad) at constant 30 V at 4° C. for 2 h using the Laemli buffer (no methanol). The membrane was blocked with 5% non-fat dry milk (NFDM) in TBST (20 mM tris, 150 mM NaCl, pH 7.6, 0.1% Tween-20) for 1 h at 23° C., and then washed once for 10 min with TBST. […]
# In vivo plasma HDL remodeling activities of some of the peptides were also analyzed. […] Results shown in the figure were determined by Western blotting for mouse apoA-I.
# [2] = test system: HDL in human plasma; assay: pre-beta HDL ELISA assay: remodeling HDL in human plasma in vitro; format: biochemical
# Description: First, various cyclic peptides, including the majority of compounds shown in FIG. 2, were assessed for activities for remodeling HDL in human plasma in vitro. Unlike western blot which was used to generate data shown in FIG. 2, here a pre-beta HDL ELISA assay was used to measure pre-beta HDL levels. Results from the assay are shown in Table 1, which lists the peptides in the order of their activities in remodeling HDL.
# [3] = test system: LDLr-null mice; assay: in vivo efficacy study: plasma total cholesterol in high-fat-fed LDLr-null mice; parameters: species or system mouse; settings: oral 35 mg/kg in drinking water, two weeks, female LDLr-null mice, high-fat diet; FIG. 7
# From the text: Encouraged by the above findings, we carried out a 2-week pilot study to determine the effect of 1 on plasma total cholesterol levels. As an animal model, we employed the LDLr-null mouse, which has a human-like lipoprotein profile and is a leading animal model for studying hypercholesterolemia and atherogenesis. Considering that the abiotic nature of cyclic D,L-α-peptides renders them highly resistant to proteolysis, we chose to conduct this pilot in vivo efficacy study via the more convenient oral route of administration. Thus, the cyclic D,L-α-peptide was administered orally in the drinking water for two weeks (each mouse drank ˜0.5 mg peptide per day, or ˜25 mg/kg/day) to mice maintained on a high-fat diet.
# (§1) In vivo efficacy study: LDL receptor-null (LDLr^−/−) mice on a C57BL/6J background were initially purchased from Jackson Laboratories (Bar Harbor, Me.) and were bred in house. The mice were weaned at 4 weeks of age and were fed ad libitum a standard chow diet (Harlan Teklad 7019) until they were 10-weeks old, when they were switched to a high-fat Western diet (WD) containing 15.8% (wt/wt) fat, 1.25% (wt/wt) cholesterol, and no cholate (Harlan Teklad 94059). At the time that the WD was started, the test cyclic peptide was added to the drinking water at a high dose of 180 μM (200 μg/mL) or a low dose of 18 μM (20 μg/mL) and the mice (female, n=8 per dosing group) were continued on WD for 10 weeks. The lyophilized peptide was easily dissolved in PBS (pH 7.4) containing 1% sucrose, resulting in a clear solution. The drinking water solution was replaced with fresh solution every day. A control group of eight mice (female, n=8) were fed WD with vehicle (PBS with 1% sucrose) drinking water. The mice consumed approximately 2.5 mL of water per day per mouse, and there was no significant difference in water or food consumption between groups.
# Effect of cyclic peptides on plasma total cholesterol: The mice were bled after two weeks of treatment and at the time of harvest (10 weeks). The blood (200 μL) was collected after an overnight fast (14-16 h) by retro-orbital puncture into a heparinized capillary tube at two weeks, or by cardiac puncture into EDTA anti-coagulant coated tubes at the time of harvest (10 weeks). Plasma was separated from whole blood immediately by centrifugation of the blood samples at 5000 rpm for 10 min at 4° C., and was then stored at −80° C. Plasma total cholesterol (TC) was measured using an enzymatic colorimetric method kit (Amplex® red cholesterol assay kit, No. A12216, Life Technologies) according to the manufacturer's instructions.
# In addition, several peptides were administered orally to mice at a 35 mg/kg dose (unless otherwise noted) in the drinking water for two weeks. The female LDLr-null mice maintained on a high-fat diet were provided with peptide-treated 1% sucrose/PBS or 1% sucrose/PBS alone as the drinking water ad libitum. Cholesterol levels were then determined. The data are shown in FIG. 7 as a scatter plot along with mean±SD. p values were determined by the one-way ANOVA test with a post hoc Tukey-Kramer test.
# [4] = test system: LDLr-null mice; assay: evaluation of atherosclerosis: whole aorta lesion area and aortic sinus lesion volume; format: in vivo, mouse; settings: oral 35 mg/kg in drinking water, 10 weeks, female LDLr-null mice; FIG. 8; 35 mg/kg
# From the text: as §1
# Evaluation of atherosclerosis: Atherosclerotic lesion severity was assessed in the aortae as previously described in Mullick et al., J. Clin. Invest. 115, 3149-3156, 2005. Briefly, at euthanasia, animals were perfused with PBS, followed by 4% formaldehyde (10% UltraPure EM Grade from Polysciences diluted in PBS, pH 7.2). For en face analysis, the entire mouse aorta was dissected from the proximal ascending aorta to the bifurcation of the iliac artery by using a dissecting microscope. Adventitial fat was removed, and the aorta was opened longitudinally, pinned flat onto black dissecting wax, stained with Sudan IV, and photographed at a fixed magnification. The photographs were digitized, and total aortic areas and lesion areas were calculated by using Adobe Photoshop version CS4, Chromatica V, and NIH Scion Image software (http://rsb.info.nih.gov/nih-image/Default.html). The results were reported as a percentage of the total aortic area that contained lesions.
# As a second assessment of atherosclerosis, lesions of the aortic root (heart sinus) were analyzed. Utilizing stereological principles, lesion volume was estimated across a fixed distance of the aortic sinus. […] Lesion areas found only within the valve cusp were measured. […] Lesion volume was calculated from an integration of the measured cross-sectional areas. […]
# Other than their in vivo cholesterol reducing activities, several peptides were also examined for ability to inhibit development of atherosclerotic legions in vivo. […] All charts in the figure are shown as a scatter plot along with mean±SD. p values were determined by the one-way ANOVA test with a post hoc Tukey-Kramer test.
Substance,"in vivo plasma HDL remodeling, level of lipid-poor pre-beta particles [1]",Pre-beta HDL generated (normalized level) ([2]; pre-beta HDL ELISA),activity in generating pre-beta HDL (in words) [2],plasma cholesterol levels (in words) [3],development of atherosclerotic lesions: whole aorta lesion areas and aortic sinus lesion volumes (in words) [4]
82 (cyclo(WIW[dW]K[dH]K[dH]); SMILES CC[C@H](C)[C@@H]1NC(=O)[C@H](Cc2c[nH]c3ccccc23)NC(=O)[C@@H](Cc2c[nH]cn2)NC(=O)[C@H](CCCCN)NC(=O)[C@@H](Cc2c[nH]cn2)NC(=O)[C@H](CCCCN)NC(=O)[C@@H](Cc2c[nH]c3ccccc23)NC(=O)[C@H](Cc2c[nH]c3ccccc23)NC1=O) [compound 82],able to remodel plasma HDL to increase the level of lipid-poor pre-beta particles,–,–,–,–
53 (cyclo([dW]L[dW]K[dH]S[dH]K); SMILES CC(C)C[C@@H]1NC(=O)[C@@H](Cc2c[nH]c3ccccc23)NC(=O)[C@H](CCCCN)NC(=O)[C@@H](Cc2c[nH]cn2)NC(=O)[C@H](CO)NC(=O)[C@@H](Cc2c[nH]cn2)NC(=O)[C@H](CCCCN)NC(=O)[C@@H](Cc2c[nH]c3ccccc23)NC1=O) [compound 53],able to remodel plasma HDL to increase the level of lipid-poor pre-beta particles,0.79,–,–,–
c[(Me)wLwR(Me)eQeR] (cyclo([dNMeW]L[dW]R[dNMeE]Q[dE]R)) [SEQ ID NO:46],–,–,negatively affect,negatively affect,remains very effective as the parent compound; also recorded: similarly effective as the parent compound in preventing the development of atherosclerotic lesions

# Source: US10092620B2, “Uses of cyclic peptides for treating and preventing atherosclerosis” (THE SCRIPPS RESEARCH INSTITUTE, priority 2013, dated 2018)
